From publication PMC10313808, “Lipoxygenase inhibitory synthetic derivatives of methyl gallate regulate gene expressions of COX-2 and cytokines to reduce animal model arthritis” (Scientific Reports, 2023)
Where two headings read alike, the source gives them in different places. Each block holds one compound with its values, some of them ahead of it.

Columns and labels:
[1] = Solubility noted on sample preparation; type: physicochemical; conditions: water
[2] = molecular target: T1, Lipoxidase from Glycine max (15- LOX) (Glycine max, UniProt P08170); experiment: In-vitro LOX enzyme inhibition assay (spectrophotometric, 234 nm); type: biochemical
T1 construct: purchased Sigma (Sigma-Aldrich, UK)
T1 sequence (P08170 1-839): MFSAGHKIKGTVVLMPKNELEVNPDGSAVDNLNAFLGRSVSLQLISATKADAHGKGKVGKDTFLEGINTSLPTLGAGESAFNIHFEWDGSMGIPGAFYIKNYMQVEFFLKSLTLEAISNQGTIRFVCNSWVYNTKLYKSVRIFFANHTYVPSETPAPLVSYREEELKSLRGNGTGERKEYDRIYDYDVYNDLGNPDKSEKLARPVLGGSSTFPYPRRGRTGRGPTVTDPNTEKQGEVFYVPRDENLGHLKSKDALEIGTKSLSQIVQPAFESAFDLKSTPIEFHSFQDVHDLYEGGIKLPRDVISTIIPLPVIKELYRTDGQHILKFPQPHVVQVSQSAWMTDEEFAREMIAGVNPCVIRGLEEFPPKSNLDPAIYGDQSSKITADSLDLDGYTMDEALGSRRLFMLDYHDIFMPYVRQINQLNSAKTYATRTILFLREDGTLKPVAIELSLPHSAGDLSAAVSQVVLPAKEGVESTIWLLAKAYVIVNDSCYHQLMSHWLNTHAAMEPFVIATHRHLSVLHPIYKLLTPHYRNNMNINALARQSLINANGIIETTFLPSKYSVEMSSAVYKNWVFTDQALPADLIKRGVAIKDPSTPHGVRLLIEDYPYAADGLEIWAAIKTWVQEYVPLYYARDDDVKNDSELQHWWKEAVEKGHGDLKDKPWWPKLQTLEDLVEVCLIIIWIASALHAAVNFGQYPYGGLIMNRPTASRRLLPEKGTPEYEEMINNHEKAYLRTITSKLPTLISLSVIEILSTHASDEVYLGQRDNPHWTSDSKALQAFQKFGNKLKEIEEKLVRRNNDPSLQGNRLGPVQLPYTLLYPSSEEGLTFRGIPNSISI
Experimental: The LOX inhibition assays were performed with MGSDs. The inhibitory activity was measured by a modified spectrophotometric method[16],[39]. The plant LOX pathway is in many respects equivalent to the ‘arachidonic acid cascades’ in animals. For this reason, the in vitro inhibition of LOX constitutes a good model for the screening of compounds with anti-inflammatory potential[40],[41]. LOX (Lipoxidase from Glycine max (15- LOX); EC 1.13.11.12) type I-B (Soybean), and linoleic acid were purchased from Sigma (Sigma-Aldrich, UK) and used without further purification. Enzyme solution of 1.03 µM was prepared in 0.2 mM borate buffer, pH 8.5. The substrate, linoleic acid solution of 0.3 mM was also prepared in the borate buffer at the same pH. […] The final concentration of MGSDs used for the analysis was 20 µM. The assay mixture was made of 50 µL of LOX, 50 µL of the test solution and 360 µL of the substrate. The final volume was made up to 2 mL with corresponding borate buffer quantity. The activity of LOX was measured on the formation of […], which was monitored at 234 nm on spectrophotometer, (HITACHI U 2900, Japan). The same procedure was repeated with triplicate for the confirmation of LOX inhibitory activity[16],[39].

FCA-induced arthritis = experiment: FCA-induced arthritis: hind paw volume; type: in vivo, Sprague–Dawley (SD) rats; conditions: for Percentage of inhibition (paw oedema) / Paw volume (mL) (mean ± SEM) 9th day / Paw volume (mL) (mean ± SEM) 18th day / Paw volume (mL) (mean ± SEM) 28th day / Paw volume (mL) (mean ± SEM) Initial day: FCA rats; for amount required relative to diclofenac for the same level of effect: in vivo FCA arthritis studies
Experimental: Chronic inflammation induced by Freund's Complete Adjuvant contains a suspension of heat-killed Mycobacterium tuberculosis in the vehicle (Chondrex, Labex Corporation). 100 μL of FCA (10 mg/mL) was injected intradermally to the left-hand paw of SD rats[42]. […] Induction of inflammation became chronic by 9–12 days and then rats were divided into 7 groups having 6 rats in each group. Everything possible was done to minimize the suffering of experimental animals. Minimum number of rats only were drafted to generate reliable data. 42 rats were randomly allocated into seven groups (6 × 7).
Group I (n = 6) served as normal rats that received an equal volume of vehicle control. Group II (n = 6) was arthritic model control treated with vehicle only. Group III (n = 6) was arthritic control which received the diclofenac (10 mg.kg^–1). Groups IV (n = 6), V (n = 6), VI (n = 6) and VII (n = 6) were treated with a low and high dose of methyl gallate (20 mg.kg^–1, 40 mg.kg^–1) and MGSD 1 (1 mg.kg^–1, 10 mg.kg^–1). The drugs were orally administered through oral gavage daily in PBS vehicle for 28 days.
By a plethysmometer the rat hind paw volume was measured from the initial day to final day (28th day) with successive intervals of 9 days, before and after FCA injection. The inhibition was calculated by the formula given below. Percentageinhibition=1-Meanchangesinpawvolumeoftreatedrat/Meanchangesinpawvolumeofuntreatedrat×100.

[3] = molecular target: T1, Lipoxidase from Glycine max (15- LOX); experiment: Michaelis–Menten enzyme kinetics (Lineweaver-Burk); type: biochemical; conditions: for IC50: Cheng–Prusoff from Ki
Experimental: To identify the mode of inhibition, enzyme kinetics assay was performed with MGSDs. For the kinetic analysis different substrate concentrations of 18, 27, 36, 45, 54, 63 µM were prepared in 0.2 mM borate buffer (H 9)[16]. The assay mixture was made of 50 µL of LOX, 50 µL of the test solution and different concentrations of the substrate. The final volume was made upto 2 mL with corresponding borate buffer quantity. The activity of LOX was measured by the formation of […], which was monitored at 234 nm on spectrophotometer, (HITACHI U 2900, Japan). The reaction was measured at a time span of 300 s. The same experiment was repeated in the presence of 0.1, 0.08 and 0.06 μM concentration of MGSDs. The Line Weaver-Burk plot was constructed and Michaelis–Menten constant (Km) and Maximal Velocity (Vmax) were determined from the plot. From the Km and Vmax obtained, the inhibitor constant, Ki was calculated using the following equation derived from the Michaelis–Menten Equation: Km′=Km1+I0/Ki. The IC50was calculated using the Cheng–Prusoff equation, Ki=IC50/1+S/Km.

[4] = molecular target: T1, Lipoxidase from Glycine max (15- LOX); parameters: method as in PMID 29847215; conditions: read-out: IC50 (LOX enzyme); previous study ref 16; cited from earlier work

- solubility [1]: soluble in water
- inhibition at 20 µM ([2]; 20 μM compound): 70 ± 3.45%
- IC50 [3]: 102 nM
- IC50 ([3]; abstract): 100 nM
- Ki ([3]; linoleic acid substrate, competitive): 30 nM
SMILES: O=C(O)COc1cc(C(=O)O)cc(OCC(=O)O)c1OCC(=O)O [MGSD 1, 2,2′,2″-((5-carboxybenzene-1,2,3-triyl)tris(oxy)) tri acetic acid]
- Percentage of inhibition (paw oedema) (FCA-induced arthritis; 1 mg.kg^−1 oral): 68%
- Paw volume (mL) (mean ± SEM) 9th day (FCA-induced arthritis; 1 mg.kg^−1 oral): 0.97 ± 0.16 mL
- Paw volume (mL) (mean ± SEM) 18th day (FCA-induced arthritis; 1 mg.kg^−1 oral): 0.68 ± 0.22 mL
- Paw volume (mL) (mean ± SEM) 28th day (FCA-induced arthritis; 1 mg.kg^−1 oral): 0.59 ± 0.08 mL
- Paw volume (mL) (mean ± SEM) Initial day (FCA-induced arthritis; 1 mg.kg^−1 oral): 0.50 ± 05 mL
- Percentage of inhibition (paw oedema) (FCA-induced arthritis; 10 mg.kg^−1 oral): 70%
- Paw volume (mL) (mean ± SEM) 9th day (FCA-induced arthritis; 10 mg.kg^−1 oral): 1.05 ± 0.16 mL
- Paw volume (mL) (mean ± SEM) 18th day (FCA-induced arthritis; 10 mg.kg^−1 oral): 0.69 ± 0.22 mL
- Paw volume (mL) (mean ± SEM) 28th day (FCA-induced arthritis; 10 mg.kg^−1 oral): 0.56 ± 0.08 mL
- Paw volume (mL) (mean ± SEM) Initial day (FCA-induced arthritis; 10 mg.kg^−1 oral): 0.50 ± 0.05 mL
- amount required relative to diclofenac for the same level of effect (FCA-induced arthritis): approximately 1/12

SMILES: COC(=O)c1cc(O)c(O)c(O)c1 [Methyl gallate]
- inhibition at 200 µM ([2]; 0.2 mM compound): 61 ± 1.35%
- Percentage of inhibition (paw oedema) (FCA-induced arthritis; 20 mg.kg^−1 oral): 45%
- Paw volume (mL) (mean ± SEM) 9th day (FCA-induced arthritis; 20 mg.kg^−1 oral): 1.32 ± 0.16 mL
- Paw volume (mL) (mean ± SEM) 18th day (FCA-induced arthritis; 20 mg.kg^−1 oral): 1.24 ± 0.22 mL
- Paw volume (mL) (mean ± SEM) 28th day (FCA-induced arthritis; 20 mg.kg^−1 oral): 1.18 ± 0.08 mL
- Paw volume (mL) (mean ± SEM) Initial day (FCA-induced arthritis; 20 mg.kg^−1 oral): 0.56 ± 0.05 mL
- Percentage of inhibition (paw oedema) (FCA-induced arthritis; 40 mg.kg^−1 oral): 37%
- Paw volume (mL) (mean ± SEM) 9th day (FCA-induced arthritis; 40 mg.kg^−1 oral): 1.66 ± 0.18 mL
- Paw volume (mL) (mean ± SEM) 18th day (FCA-induced arthritis; 40 mg.kg^−1 oral): 1.56 ± 0.24 mL
- Paw volume (mL) (mean ± SEM) 28th day (FCA-induced arthritis; 40 mg.kg^−1 oral): 1.4 ± 0.09 mL
- Paw volume (mL) (mean ± SEM) Initial day (FCA-induced arthritis; 40 mg.kg^−1 oral): 0.50 ± 0.05 mL
- Percentage of inhibition (paw oedema) (FCA-induced arthritis; 40 mg.kg^−1 oral, listed as methyl gallate): 35–45%
- amount required relative to diclofenac for the same level of effect (FCA-induced arthritis): approximately five times of diclofenac
- IC50 [4]: 30700 nM
